Key:
[1] = target: T1, human GHS receptor (Homo sapiens, UniProt Q92847); experiment: Ghrelin IP1 agonist assay (IP1 HTRF) in HEK293s cells expressing human GHS receptor; format: cell-based
T1 construct: expressed in transfected cells
Method: In HEK293s cells stably expressing human GHS receptor (In-house), agonist activity was assessed by measuring intracellular myo-Inositol 1 phosphate (IP1) using the IP1 HTRF assay kit (Cisbio International).
Cells were harvested using accutase (Sigma), spun down at 1000 rpm for 5 minutes and resuspended in stimulation buffer (as above) containing 0.02% fatty acid free BSA at a density of 1.43E6 cells/ml.

[2] = target: T1, human GHS receptor; experiment: h bind IC50 (binding assay, hBindingIC50)

T1 sequence (Q92847 whole entry): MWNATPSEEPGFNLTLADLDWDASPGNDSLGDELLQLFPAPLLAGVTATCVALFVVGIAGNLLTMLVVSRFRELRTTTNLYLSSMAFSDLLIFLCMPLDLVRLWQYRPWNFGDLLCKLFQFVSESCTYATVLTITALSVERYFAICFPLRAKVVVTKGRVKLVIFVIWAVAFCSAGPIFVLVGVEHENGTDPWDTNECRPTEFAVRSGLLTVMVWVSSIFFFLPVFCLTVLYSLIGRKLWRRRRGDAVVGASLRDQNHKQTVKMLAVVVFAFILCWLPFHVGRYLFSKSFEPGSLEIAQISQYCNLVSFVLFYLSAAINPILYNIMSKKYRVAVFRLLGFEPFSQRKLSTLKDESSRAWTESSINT

Emax ([1]; HEK293S, 2 h, agonist effect as % maximal effect of GHRP-6 (5 μM), read-out: h IP1 ag %): 18.2%
EC50 ([1]; HEK293s cells stably expressing human GHS receptor, read-out: h IP1 ag EC50): 3.68 µM
IC50 [2]: 2.22 µM
Compound: CCS(=O)(=O)c1ccccc1C(=O)NC(=O)Nc1nc2ccc(S(C)(=O)=O)cc2s1 [Example 135, 2-Ethylsulfonyl-N-[(6-methylsulfonylbenzothiazol-2-yl)carbamoyl]benzamide]

— US20130203730A1, “BENZOTHIAZOLES AS GHRELIN RECEPTOR MODULATORS” (AstraZeneca AB, priority 2007, published 2013)
